In US20240199587A1, “HETEROCYCLIC COMPOUNDS” (Hoffmann-La Roche Inc., priority 2021, published 2024):

What follows are molecules tested against T1, MAGL (Homo sapiens, UniProt Q99685) (assay: 2-AG assay (MAGL inhibitory activity, hydrolysis of 2-arachidonoylglycerol to arachidonic acid followed by mass spectrometry)). Conditions: 8 μM 2-arachidonoylglycerol, 15 min pre-incubation, 30 min incubation at RT, RapidFire MS readout.
T1 sequence (Q99685 1-303): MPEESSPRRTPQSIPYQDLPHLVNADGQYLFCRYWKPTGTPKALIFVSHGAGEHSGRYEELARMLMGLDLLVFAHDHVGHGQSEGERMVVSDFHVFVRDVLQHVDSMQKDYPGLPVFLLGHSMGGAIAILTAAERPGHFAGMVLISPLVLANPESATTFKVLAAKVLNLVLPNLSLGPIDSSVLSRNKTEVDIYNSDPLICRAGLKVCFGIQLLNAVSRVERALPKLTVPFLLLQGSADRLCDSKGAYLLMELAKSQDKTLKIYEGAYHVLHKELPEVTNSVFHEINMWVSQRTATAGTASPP
Type: biochemical
Description: Compounds of formula (I) were profiled for MAGL inhibitory activity by determining the enzymatic activity by following the hydrolysis of the natural substrate 2-arachidonoylglycerol (2-AG) resulting in arachidonic acid, which can be followed by mass spectrometry. This assay is hereinafter abbreviated “2-AG assay”.
Compounds of formula (I) were profiled for MAGL inhibitory activity by determining the enzymatic activity by following the hydrolysis of the natural substrate 2-arachidonoylglycerol (2-AG) resulting in arachidonic acid, which can be followed by mass spectrometry. This assay is hereinafter abbreviated “2-AG assay”. The 2-AG assay was carried out in 384 well polypropylene assay plates. […] Compound dilutions were added to MAGL protein in assay buffer (50 mM TRIS, 1 mM EDTA, 0.01% (v/v) Tween-20, 2.5% (v/v) DMSO). After shaking, the plate was incubated for 15 min at RT. To start the reaction, 2-arachidonoylglycerol in assay buffer was added. The final concentrations in the assay was […] for MAGL protein and 8 μM 2-arachidonoylglyerol. After shaking and 30 min incubation at RT, the reaction was quenched by the addition of two assay volumes of acetonitrile containing 4 μM of d8-arachidonic acid. The amount of arachidonic acid formed was traced by an online SPE system (Agilent Rapidfire) coupled to a triple quadrupole mass spectrometer. A C18 SPE cartridge (Agilent G9205A) was used in an acetonitrile/water liquid setup. The mass spectrometer was operated in negative electrospray mode following the mass transitions 303.1→259.1 for arachidonic acid and 311.1→267.0 for d8-arachidonic acid. The activity of the compounds was calculated based on the ratio of intensities [arachidonic acid/d8-arachidonic acid].

IC50 [nM]	Compound
4170	COc1ccnn1C1CC2(C1)CN(C(=O)c1ccc(-c3noc(C(C)(C)C)n3)cc1)C2 [Example 19, [4-(5-tert-butyl-1,2,4-oxadiazol-3-yl)phenyl]-[6-(5-methoxypyrazol-1-yl)-2-azaspiro[3.3]heptan-2-yl]methanone]
82	CC(C)(C)c1nc(-c2ccc(C(=O)N3CC4(CC(n5cnc(C#N)n5)C4)C3)cc2)no1 [Example 20, 1-[2-[4-(5-tert-butyl-1,2,4-oxadiazol-3-yl)benzoyl]-2-azaspiro[3.3]heptan-6-yl]-1,2,4-triazole-3-carbonitrile]
12.2	Cc1cc(C(=O)N2CC3(CC(n4cnc(C5CC5)c4)C3)C2)cnc1OCC1(C(F)(F)F)CC1 [Example 25, [6-(4-cyclopropylimidazol-1-yl)-2-azaspiro[3.3]heptan-2-yl]-[5-methyl-6-[[1-(trifluoromethyl)cyclo-propyl]methoxy]-3-pyridyl]methanone]
50	O=C(c1cnc(OCC2(C(F)(F)F)CC2)c(F)c1)N1CC2(CC(n3cnc(C4CC4)c3)C2)C1 [Example 28, [6-(4-cyclopropylimidazol-1-yl)-2-azaspiro[3.3]heptan-2-yl]-[5-fluoro-6-[[1-(trifluoromethyl)cyclo-propyl]methoxy]-3-pyridyl]methanone]
52.2	CC1(COc2ncc(C(=O)N3CC4(CC(n5cnc(C6CC6)n5)C4)C3)cc2F)CC1 [Example 29, [6-(3-cyclopropyl-1,2,4-triazol-1-yl)-2-azaspiro[3.3]heptan-2-yl]-[5-fluoro-6-[(1-methylcyclopropyl)methoxy]-3-pyridyl]methanone]
108	CC1(COc2ncc(C(=O)N3CC4(CC(n5cnc(C6CC6)c5)C4)C3)cc2F)CC1 [Example 30]
2820	Cc1cc(C(=O)N2CC3(CC(n4cnc(C5CC5)n4)C3)C2)nnc1OCC1(C(F)(F)F)CC1 [Example 32, [6-(3-cyclopropyl-1,2,4-triazol-1-yl)-2-azaspiro[3.3]heptan-2-yl]-[5-methyl-6-[[1-(trifluoromethyl)cyclo-propyl]methoxy]pyridazin-3-yl] methanone]

Further lines, the molecule ahead of its results:

Compound	IC50 [nM]
CC(C)(C)c1nc(-c2ccc(C(=O)N3CC4(CC(n5ncc6c5CCCC6)C4)C3)cc2)no1 [Example 22, [4-(5-tert-butyl-1,2,4-oxadiazol-3-yl)phenyl]-[6-(4,5,6,7-tetrahydroindazol-1-yl)-2-azaspiro[3.3]heptan-2-yl]methanone]	451
Cc1ccc(C2CC3(C2)CN(C(=O)c2ccc(-c4noc(C(C)(C)C)n4)cc2)C3)cn1 [Example 23, [4-(5-tert-butyl-1,2,4-oxadiazol-3-yl)phenyl]−[6-(6-methyl-3-pyridyl)-2-azaspiro[3.3]heptan-2-yl]methanone]	229
Cc1cc(C(=O)N2CC3(CC(n4cnc(C5CC5)n4)C3)C2)cnc1OCC1(C(F)(F)F)CC1 [Example 24, [6-(3-cyclopropyl-1,2,4-triazol-1-yl)-2-azaspiro[3.3]heptan-2-yl]-[5-methyl-6-[[1-(trifluoromethyl)cyclo-propyl]methoxy]-3-pyridyl]methanone]	7.7
O=C(c1cnc(OCC2(C(F)(F)F)CC2)c(F)c1)N1CC2(CC(n3cnc(C4CC4)n3)C2)C1 [Example 26, [6-(3-cyclopropyl-1,2,4-triazol-1-yl)-2-azaspiro[3.3]heptan-2-yl]−[5-fluoro-6-[[1-(trifluoromethyl)cyclopropyl]methoxy]-3-pyridyl]methanone]	19.8
Cc1nc(C(=O)N2CC3(CC(n4cnc(C5CC5)n4)C3)C2)cnc1OCC1(C(F)(F)F)CC1 [Example 27, [6-(3-cyclopropyl-1,2,4-triazol-1-yl)-2-azaspiro[3.3]heptan-2-yl]-[6-methyl-5-[[1-(trifluoromethyl)cyclo-propyl]methoxy]pyrazin-2-yl]methanone]	26.5
O=C(c1cnc(OCC2(C(F)(F)F)CC2)nc1)N1CC2(CC(n3cnc(C4CC4)n3)C2)C1 [Example 31, [6-(3-cyclopropyl-1,2,4-triazol-1-yl)-2-azaspiro[3.3]heptan-2-yl]-[2-[[1-(trifluoromethyl)cyclo-propyl]methoxy]pyrimidin-5-yl] methanone]	353
